{"source": "paper PMC7835349", "about": "(Communications Biology, 2021)", "key": {"tumours": {"test_system": "tumours", "assay": "Formulation dependent efficacy of AZD4320 (Fig S2a)", "type": "in vivo", "conditions": "single 5mg/kg IV bolus", "description": "Supplementary Figure 2. Formulation dependent efficacy of AZD4320 (a) A single 5mg/kg\nIV bolus dose of AZD4320 formulated in 30% hydroxypropyl-β-cyclodextrin (HP-β-CD)\n(§1) Data in the graphs are represented as mean tumor volume\n± SEM (n=5). […]\n(§2) (1 picture or pasted object on this page, not shown here)"}, "[1]": {"assay": "Formulation dependent plasma and tumour pharmacokinetics of AZD4320 (Fig S2b)", "type": "in vivo", "conditions": "mouse, 5 mg/kg IV, 30% HPbCD", "description": "Supplementary Figure 2. Formulation dependent efficacy of AZD4320 (a) A single 5mg/kg IV bolus dose of AZD4320 formulated in 30% hydroxypropyl-β-cyclodextrin (HP-β-CD) […]\nas §1\n± SEM (n=5). Arrow indicates dosing schedule.(b) A pharmacokinetic profile from both […]\nexplained by differential profiles in the plasma. The plasma profiles are similar. The efficacy is consistent with the concentration profiles observed in the tumour (n=4, Tween formulation, yellow, n=8 HP-β-CD formulation, purple). Lines connect the mean values.\nas §2"}, "[2]": {"assay": "Plasma protein binding (unbound fraction)", "type": "in vitro ADME", "conditions": "pre-clinical species and human, across pre-clinical species and man"}, "[3]": {"test_system": "luciferase-tagged Ri-1 tumour cells", "assay": "Disseminated luciferase-tagged Ri-1 DLBCL model (bioluminescence)", "type": "in vivo, C.B-17 SCID mouse", "description": "Ten million luciferase-tagged Ri-1 tumour cells were injected intravenously in the tail vein of C.B.−17 SCID female mice in a volume of 0.1 ml. Tumour burden (determined by Xenogen IVIS imaging), body weight and health condition were recorded twice weekly for the duration of the study. For Xenogen imaging, mice received an intraperitoneal administration of 150 mg/kg D- Luciferin 10 to 15 minutes prior to imaging. Imaging was performed under isoflurane anaesthesia and data analyzed using Living Image software (Xenogen). Statistical significance was evaluated using non-parametric, unpaired, two-tailed t-test."}}, "note": "“And” between values parts separate entries of the source, which are not always exact repeats. Equal values may be shown once."}
{"compound": "CN(CCO)CCC(CSc1ccccc1)Nc1ccc(S(=O)(=O)NC(=O)c2ccc(N3CCC(C(O)c4ccccc4-c4ccc(Cl)cc4)CC3)cc2)cc1S(=O)(=O)C(F)(F)F", "note": "(stereo not drawn) [AZD4320]", "values": [{"measurement": "efficacy", "setting": "tumours; formulated in 0.5% Tween 80", "value": "no efficacy"}, {"measurement": "efficacy", "setting": "tumours; formulated in 30% hydroxypropyl-β-cyclodextrin", "value": "complete regression of the tumours"}, {"measurement": "concentration at 6 h", "setting": "[1]; C.B-17 SCID, plasma, iv, 5 mg/kg, 6 h, study CIV-12-112", "value": 65, "unit": "nM"}, {"measurement": "concentration at 0.5 h", "setting": "[1]; C.B-17 SCID, tumour, iv, 5 mg/kg, Tumor, 0.5 h, study CIV-11-055", "value": 815, "unit": "nM"}, {"measurement": "concentration at 1 h", "setting": "[1]; C.B-17 SCID, tumour, iv, 5 mg/kg, Tumor, 1 h, study CIV-11-055", "value": 473, "unit": "nM"}, {"measurement": "concentration at 6 h", "setting": "[1]; C.B-17 SCID, tumour, iv, 5 mg/kg, Tumor, 6 h, study CIV-11-055", "value": 312, "unit": "nM"}, {"measurement": "concentration at 6 h", "setting": "[1]; C.B-17 SCID, tumour, iv, 5 mg/kg, Tumor, 6 h, study CIV-12-112", "value": 436, "unit": "nM"}, {"measurement": "concentration at 24 h", "setting": "[1]; C.B-17 SCID, tumour, iv, 5 mg/kg, Tumor, 24 h, study CIV-11-055", "value": 275, "unit": "nM"}, {"measurement": "concentration at 24 h", "setting": "[1]; C.B-17 SCID, tumour, iv, 5 mg/kg, Tumor, 24 h, study CIV-12-112", "value": 165, "unit": "nM"}, {"measurement": "Concentration", "setting": "[1]; Plasma, 6 h, study CIV-12-112", "value": "114 nM and 108 nM and 59 nM"}, {"measurement": "Concentration", "setting": "[1]; Tumor, 0.5 h, study CIV-11-055", "value": "750 nM and 857 nM and 503 nM"}, {"measurement": "Concentration", "setting": "[1]; Tumor, 1 h, study CIV-11-055", "value": "394 nM and 626 nM and 461 nM"}, {"measurement": "Concentration", "setting": "[1]; Tumor, 6 h, study CIV-11-055", "value": "253 nM and 344 nM and 313 nM"}, {"measurement": "Concentration", "setting": "[1]; Tumor, 6 h, study CIV-12-112", "value": "568 nM and 289 nM and 439 nM"}, {"measurement": "Concentration", "setting": "[1]; Tumor, 24 h, study CIV-11-055", "value": "196 nM and 164 nM and 174 nM"}, {"measurement": "Concentration", "setting": "[1]; Tumor, 24 h, study CIV-12-112", "value": "172 nM and 93 nM and 130 nM"}, {"measurement": "fraction unbound", "setting": "[2]", "value": "< 3e-05"}]}
{"compound": "AZD4320-MIDA-PEG2100 [AZD0466]", "values": [{"measurement": "Raw bioluminescence counts in individual animals", "setting": "[3]; AZD0466 34 mg/kg (10mg/kg AZD4320), day 1", "value": "1011000 counts and 1455000 counts and 962000 counts and 1223000 counts and 856300 counts"}, {"measurement": "Raw bioluminescence counts in individual animals", "setting": "[3]; AZD0466 34 mg/kg (10mg/kg AZD4320), day 4", "value": "1131000 counts and 1477000 counts and 863000 counts and 1453000 counts and 1099000 counts"}, {"measurement": "Raw bioluminescence counts in individual animals", "setting": "[3]; AZD0466 34 mg/kg (10mg/kg AZD4320), day 8", "value": "2077000 counts and 2641000 counts and 963600 counts and 3688000 counts and 1848000 counts"}, {"measurement": "Raw bioluminescence counts in individual animals", "setting": "[3]; AZD0466 34 mg/kg (10mg/kg AZD4320), day 11", "value": "2663000 counts and 3475000 counts and 794700 counts and 3942000 counts and 2369000 counts"}, {"measurement": "Raw bioluminescence counts in individual animals", "setting": "[3]; AZD0466 34 mg/kg (10mg/kg AZD4320), day 15", "value": "3909000 counts and 5355000 counts and 1268000 counts and 8178000 counts and 3745000 counts"}, {"measurement": "Raw bioluminescence counts in individual animals", "setting": "[3]; AZD0466 103 mg/kg (30mg/kg AZD4320), day 1", "value": "1023000 counts and 885100 counts and 876200 counts and 2011000 counts and 1243000 counts"}, {"measurement": "Raw bioluminescence counts in individual animals", "setting": "[3]; AZD0466 103 mg/kg (30mg/kg AZD4320), day 4", "value": "712200 counts and 758000 counts and 861600 counts and 963300 counts and 1088000 counts"}, {"measurement": "Raw bioluminescence counts in individual animals", "setting": "[3]; AZD0466 103 mg/kg (30mg/kg AZD4320), day 8", "value": "888700 counts and 911000 counts and 1080000 counts and 921400 counts and 1303000 counts"}, {"measurement": "Raw bioluminescence counts in individual animals", "setting": "[3]; AZD0466 103 mg/kg (30mg/kg AZD4320), day 11", "value": "687900 counts and 678400 counts and 868400 counts and 651900 counts and 817800 counts"}, {"measurement": "Raw bioluminescence counts in individual animals", "setting": "[3]; AZD0466 103 mg/kg (30mg/kg AZD4320), day 15", "value": "1023000 counts and 956600 counts and 1075000 counts and 787100 counts and 1030000 counts"}, {"measurement": "Raw bioluminescence counts in individual animals", "setting": "[3]; AZD0466 340 mg/kg (100mg/kg AZD4320), day 1", "value": "851500 counts and 1286000 counts and 895800 counts and 1120000 counts and 1558000 counts"}, {"measurement": "Raw bioluminescence counts in individual animals", "setting": "[3]; AZD0466 340 mg/kg (100mg/kg AZD4320), day 4", "value": "675300 counts and 732000 counts and 775100 counts and 773400 counts and 665700 counts"}, {"measurement": "Raw bioluminescence counts in individual animals", "setting": "[3]; AZD0466 340 mg/kg (100mg/kg AZD4320), day 8", "value": "696900 counts and 758300 counts and 613100 counts and 757700 counts and 754200 counts"}, {"measurement": "Raw bioluminescence counts in individual animals", "setting": "[3]; AZD0466 340 mg/kg (100mg/kg AZD4320), day 11", "value": "628500 counts and 817700 counts and 761500 counts and 744200 counts and 883400 counts"}, {"measurement": "Raw bioluminescence counts in individual animals", "setting": "[3]; AZD0466 340 mg/kg (100mg/kg AZD4320), day 15", "value": "1033000 counts and 1121000 counts and 987400 counts and 873700 counts and 861800 counts"}, {"measurement": "anti-tumour activity", "setting": "[3]; disseminated Ri-1, once weekly IV", "value": "dose-dependent anti-tumour activity"}]}
